Laboratory results as given in article PMC7385626 (Scientific Reports, 2020).
Where “and” joins values, the source holds several entries; their conditions need not be identical. Identical values can stand only once.

Key:
S. enteridis ATCC13076 = test: Disc diffusion assay; format: cell-based, Salmonella Enteritidis
Method: (§1) Therefore, the pathogen bacterial flora and the opportunistic agents may be taken into consideration both in the management of cancer patients and in individual susceptibility to cancer. Indeed, dual acting factors with antimicrobial and antiproliferative potentials can result in improved therapeutic efficacy for cancer cell patients or reduced cancer predisposition. […]. In this study, 10 microbial cultures of this part, belonging to ten types of bacterial were used. The culture was grown in Mueller–Hinton Broth (Merck) for all the bacterial strains at 36 °C. Antimicrobial test was carried out by using disc-diffusion assay utilizing 100 µL of suspension with 10^8 CFU/mL of bacteria and 10^6 CFU/mL of yeast spread on Nutrient Agar and Potato Dextrose Agar, respectively. Also, the blank disc (Oxoid = 6 mm in diameter) was impregnated with 20 µL of each substance (105 µg/disc) and placed on the inoculated agar. Negative controls ([…]) were prepared using the same solvent (water) employed to dissolve each substance. […]. The inoculated plate was incubated at 36 °C for clinical bacterial strains. Antimicrobial activities were evaluated by obtaining the zone of inhibitory effect against the test organisms.

E. aerogenes 2924 = test: Disc diffusion assay; format: cell-based, Enterobacter Aerogenes
Method: as §1

E. coli 111 = test: Disc diffusion assay; format: cell-based, Escherichia coli
Method: as §1

B. subtilis ATCC6633 = test: Disc diffusion assay; format: cell-based, Bacillus Subtilis
Method: as §1

BSA = BSA (Bos taurus, UniProt P02769); test: UV–Visible absorption titration, BSA binding constant; set-up: species or system Bovine
Description: UV–Visible absorption spectroscopy technique was also used to study interactions between BSA and 1–4. […] The some results of [BSA]/(εa − εf) = [BSA]/(εb − εf) + 1/[Kb(εb − εf)] in Fig. 9, used and also obtained. The binding constants for the 1–4 were found as 2.4 ± 0.22 × 10^4 M^−1, 4.3 ± 0.29 × 10^4 M^−1, 3.4 ± 0.23 × 10^4 M^−1 and 4.8 ± 0.29 × 10^4 M^−1, respectively. In Fig. 9, the increase in BSA concentrations leads to a change in the absorption of the complexes resulting in hypochromism for 1 and 3 and hyperchromism for 2 and 4.
To obtain the interaction act of the molecules with calf thymus DNA and also to determine the binding constants (Kb) UV–Visible absorption spectroscopy method was utilized. Indeed, 2.5 mg calf thymus DNA in this part was dissolved in Tris–HCl buffer and stabile pending seven days in the refrigerator. The concentration level of calf thymus DNA was calculated spectrophotometrically assay at 260 nm. This method was done according to previous studies.

S. gallinarum = test: Disc diffusion assay; format: cell-based, Salmonella Gallinarum
Method: as §1

C6, HeLa, and HT29 cells = test: DNA laddering (internucleosomal DNA fragmentation); format: cell-based
Method: Here, appearances of apoptotic morphology and DNA fragmentation may be a result of the activation of the extrinsic apoptotic pathways, including Ca^2+ dependent endonucleases. Apoptosis assay is determined by controlling cell death which included cleavage of DNA molecule into regular fragments. In this part, we observed that our molecules could act through containing apoptosis on some cells. More studies were conducted to obtain the antiproliferative and apoptotic potentials of Ag molecules which are consistent with this work[70],[75],[75],[79],[80].
By growing C6, HeLa, and HT29 cells were incubated with the molecules at 37 °C for overnight, DNA molecule was isolated in this part, and DNA fragmentation was visualized by agarose gel electrophoresis. […] A-HT29: 1, DNA standard; 2, HT29 Control; 3, HT29 + 2; 4, HT29 + 3; 5, HT29 + 4. B-C6: 1, DNA standard; 2, C6 + 2; 3, C6 + 3; 4, C6 + 4; 5, C6 Control. C-HeLa: 1, DNA standard; 2, HeLa + 2; 3, HeLa + 3; 4, HeLa + 4; 5, HeLa Control.
. Treated cell was harvested using a plastic scraper, and these fixed with 70 % ethanol, and also incubated for 48 hours. The ethanol amount was removed by centrifugation and air drying. The cell pellet was resuspended in 55 μL phosphate-citrate buffer (consisting of 192 parts of 0.2 M Na2HPO4 and 8 parts of 0.1 M citric acid, pH 7.8), and incubated at 37°C for 30 min in a shaker incubator. A 45 μL of supernatant was transferred to a microsantrifuge tube, mixed with 5 μL 0.25% Tween20 solution and 5 μL RNase A enzyme solution and also incubated for 30 min in a shaker incubator. […]

P. aeruginosa ATCC9027 = test: Disc diffusion assay; format: cell-based, Pseudomonas Aureginosa
Method: as §1

HeLa cells = test: Cell migration assay; format: cell-based
Description: Ag(I) compounds at 30% maximal inhibitory concentration (IC30) managed to inhibit tumor cell migration with low cytotoxicity (data not shown). In addition, this cytotoxic ability of Ag(I) compounds at 20% maximal inhibitory concentration (IC20) allowed the suppression of cell migration without damaging the cell membrane at non-toxic concentrations (data not shown). […] While untreated HeLa cells filled 100% of the gap, compounds 2, 3, and 4 managed to spread to 9%, %11, 15% of the gap, respectively (Figure S16; Supplementary Material, Day 2). In addition, the media with Ag(I) compounds were replaced with fresh media following the 72-h incubation, but the HeLa cells could not fill the gap (data not shown). […]. The result was consistent with that of the other studies on Ag(I) complexes containing different ligands[73],[74],[78],[80],[81],[83]–[87].
The migration feature of the 2, 3 and 4 was monitored using the cell migration method. Briefly, an equal number of HeLa cells (3.5 × 10^4 HeLa cells) were seeded into the two reservoirs separated by a 500 µm thick wall and allowed to grow to 90–95 % confluence. […]. The closure of the gap by the cells was photographed 0, 1 and 2 days after incubation by using a phase contrast inverted microscope.
Fig. S16. Effect of 2, 3 and 4 on the migration of HeLa cell line. […]

St. pyogenez ATCC176 = test: Disc diffusion assay; format: cell-based, Steptococcus Pyogerez
Method: as §1

CT-DNA = test: Ethidium bromide exchange (fluorescence quenching) study; format: binding, calf
Method: Fig. S13. The emission spectra of EB-bound (a) DNA solutions in the absence and presence of increasing concentrations of 2, 3, and 4 25 μM (b), 50 μM (c), and 75 μM (d). [EB]=10.0 μM (e), [DNA] 50.0 μM. […] (µM) for determining KSV.

Substance	inhibition zones, S. enteridis ATCC13076 (S. enteridis ATCC13076)	inhibition zones, E. aerogenes 2924 (E. aerogenes 2924)	inhibition zones, E. coli 111 (E. coli 111)	inhibition zones, B. subtilis ATCC6633 (B. subtilis ATCC6633)	binding constant with BSA (BSA)	inhibition zones, S. gallinarum (S. gallinarum)	DNA fragmentation (DNA laddering) (C6, HeLa, and HT29 cells)	inhibition zones, P. aeruginosa ATCC9027 (P. aeruginosa ATCC9027)	part of the gap filled by HeLa cells (migration) (HeLa cells)	inhibition zones, St. pyogenez ATCC176 (St. pyogenez ATCC176)	KSV (Stern–Volmer quenching constant, EB-DNA) (CT-DNA)
[Cu(N-bishydeten)Ag3(CN)5] [Complex 2]	30 ± 0.58 mm	22 ± 1.0 mm	32 ± 0.0 mm	27 ± 0.58 mm	4.3 ± 0.29 × 10^4 M^−1 and 4.3 x 10^4	35 ± 1.0 mm	induced the organization of DNA fragmentation	30 ± 1.0 mm	9%	32 ± 0.58 mm	5.0 ± 0.32 × 10^3 M^−1
[Zn(N-bishydeten)Ag3(CN)5] [Complex 3]	33 ± 0.58 mm	20 ± 1.0 mm	30 ± 0.58 mm	31 ± 1.0 mm	3.4 ± 0.23 × 10^4 M^−1 and 3.4 x 10^4	35 ± 0.58 mm	induced the organization of DNA fragmentation	30 ± 1.0 mm	11%	29 ± 0.58 mm	13.7 ± 0.41 × 10^3 M^−1
[Cd(N-bishydeten)]4[Ag(CN)2]8[Ag(CN)]2 [Complex 4]	36 ± 1.0 mm	25 ± 1.0 mm	29 ± 0.58 mm	34 ± 0.58 mm	4.8 ± 0.29 × 10^4 M^−1 and 4.8 x 10^4	37 ± 1.0 mm	induced the organization of DNA fragmentation	30 ± 0.58 mm	15%	26 ± 0.0 mm	1.1 ± 0.12 × 10^3 M^−1
